# Activity calls are given as the source filed them. How the calls were made is not given here.
# System: GENE-TOX genotoxicity assays, various organisms and cells
# Assay: GENE-TOX mutagenicity studies
# Details: for call: Assay Type: In vivo carcinogenicity studies
# [1] = Species/Cell Type: Bacillus subtilis (H17 vs M45), Assay Type: Rec-assay, spot test, DNA effects (bacterial DNA repair), Assay Code: REWT, Evaluation Type: Evaluation A (Pre-1980)
# [2] = Species/Cell Type: Bacillus subtilis (H17 vs M45T), Assay Type: Rec-assay, spot test, DNA effects (bacterial DNA repair), Assay Code: REXT, Evaluation Type: Evaluation A (Pre-1980)
# [3] = Species/Cell Type: Saccharomyces cerevisiae, Assay Type: Mitotic recombination or gene conversion, Assay Code: YEC-, Evaluation Type: Evaluation A (Pre-1980)
# [4] = Species/Cell Type: Salmonella typhimurium (one or more of the five standard strains: TA98, TA100, TA1535, TA1537, and TA1538), Assay Type: Histidine reverse gene mutation, Ames assay, Assay Code: SALT, Evaluation Type: Evaluation A (Pre-1980)
# [5] = Species/Cell Type: Salmonella typhimurium (one or more of the five standard strains: TA98, TA100, TA1535, TA1537, and TA1538), Assay Type: Histidine reverse gene mutation, Ames assay, Assay Code: SAL-, Evaluation Type: Evaluation A (Pre-1980)
# [6] = Species/Cell Type: Escherichia coli polA (W3119 vs P3478), Assay Type: Rec-assay, DNA effects (bacterial DNA repair), Assay Code: RE1+, Evaluation Type: Evaluation A (Pre-1980)
# [7] = Species/Cell Type: Salmonella typhimurium (one or more of the five standard strains: TA98, TA100, TA1535, TA1537, and TA1538), Assay Type: Histidine reverse gene mutation, Ames assay, Assay Code: SAL+*, Activation: With metabolic activation, Evaluation Type: Evaluation A (Pre-1980)
# [8] = Species/Cell Type: Drosophila melanogaster, Assay Type: Sex-linked recessive lethal gene mutation, Assay Code: SRL+, Evaluation Type: Evaluation A (Pre-1980)
# [9] = Species/Cell Type: Nonhuman, Assay Code: CCG+, Evaluation Type: Evaluation A (Pre-1980)
# [10] = Species/Cell Type: Nonhuman, Assay Type: Sister-chromatid exchange (SCE) in vitro, Assay Code: SC2+D, Dose Response: With dose response, Evaluation Type: Evaluation B (Post-1980)
# [11] = Species/Cell Type: Saccharomyces cerevisiae, Assay Type: Reverse gene mutation, Assay Code: YER+, Evaluation Type: Evaluation A (Pre-1980)
# [12] = Species/Cell Type: Nonhuman, Assay Type: Sister-chromatid exchange (SCE) in vitro, Assay Code: SC2+, Evaluation Type: Evaluation B (Post-1980)
# [13] = Species/Cell Type: Mammalian polychromatic erythrocytes, Assay Type: Micronucleus test, chromosome aberrations, Assay Code: MNT-, Evaluation Type: Evaluation B (Post-1980)
# [14] = Species/Cell Type: Rodents, Sex: Male, Assay Type: Dominant lethal test, Assay Code: DLT-, Evaluation Type: Evaluation A (Pre-1980)
smiles,measurement,setting,value
O=S(=O)(O)c1cc(S(=O)(=O)O)c2c(N=Nc3ccc(S(=O)(=O)O)c4ccccc34)c(O)ccc2c1,mutagenic call,[1],no conclusion
same,mutagenic call,[2],no conclusion
same,mutagenic call,[3],inactive; negative
O=C1c2ccccc2C(=O)N1CC1CO1 (stereo not drawn),mutagenic call,"Species/Cell Type: Chinese hamster ovary (CHO) cells, Assay Type: Forward gene mutation at the HPRT locus, Assay Code: CHO+, Evaluation Type: Evaluation B (Post-1980)",active; positive
C=CCNC(=O)OC1(Sc2ccccc2)C(=O)c2ccccc2C1=O,mutagenic call,"Species/Cell Type: Salmonella typhimurium, Assay Type: Forward and reverse gene mutation, host-mediated assay, Assay Code: HMAT, Evaluation Type: Evaluation A (Pre-1980)",no conclusion
O=CNc1nc(-c2ccc([N+](=O)[O-])[nH]2)cs1,mutagenic call,[4],no conclusion
Cc1ccc(Cl)cc1,mutagenic call,"Species/Cell Type: Saccharomyces cerevisiae, Assay Type: Mitotic recombination or gene conversion, Assay Code: YEH-, Evaluation Type: Evaluation A (Pre-1980)",inactive; negative
same,mutagenic call,[5],inactive; negative
Nc1c(O)ccc2ccccc12,mutagenic call,[6],active; positive
same,mutagenic call,[4],no conclusion
O=C1OC2(c3ccc(O)cc3Oc3cc(O)ccc32)c2ccccc21,mutagenic call,[1],no conclusion
COc1ccc2c3c(cccc13)C(=O)c1ccccc1-2,mutagenic call,[7],active; positive
O=P1(NCCCl)OCCCN1CCCl (stereo not drawn),mutagenic call,"Species/Cell Type: Drosophila melanogaster, Assay Type: Aneuploidy, partial sex chromosome loss, chromosome aberrations, Assay Code: DAP-M, Evaluation Type: Evaluation A (Pre-1980)",inactive; negative
same,mutagenic call,"Species/Cell Type: Drosophila melanogaster, Assay Type: Aneuploidy, whole sex chromosome loss, chromosome aberrations, Assay Code: DAC-M, Evaluation Type: Evaluation A (Pre-1980)",inactive; negative
same,mutagenic call,[8],active; positive
same,mutagenic call,"Species/Cell Type: Mammalian polychromatic erythrocytes, Assay Type: Micronucleus test, chromosome aberrations, Assay Code: MNT+, Evaluation Type: Evaluation A (Pre-1980)",active; positive
same,call,[9],active; positive
same,mutagenic call,"Species/Cell Type: Saccharomyces cerevisiae, Assay Type: Forward and reverse gene mutation, mitotic recombination and gene conversion, DNA effects, body fluid assay, Assay Code: BFC+, Evaluation Type: Evaluation A (Pre-1980)",active; positive
same,mutagenic call,"Species/Cell Type: Saccharomyces cerevisiae, Assay Type: Forward and reverse gene mutation, mitotic recombination and gene conversion, host-mediated assay, Assay Code: HMET, Evaluation Type: Evaluation A (Pre-1980)",no conclusion
same,mutagenic call,"Species/Cell Type: Saccharomyces cerevisiae, Assay Type: Mitotic recombination or gene conversion, Assay Code: YEC+*, Activation: With metabolic activation, Evaluation Type: Evaluation A (Pre-1980)",active; positive
same,mutagenic call,[7],active; positive
Cc1ccc2cc3c(ccc4ccccc43)cc2c1,mutagenic call,[10],active; positive
same,mutagenic call,[7],active; positive
Cc1ccc2c(c1O)N[C@H](O)[C@@H]1CC(/C=C/C(N)=O)=CN1C2=O,mutagenic call,"Species/Cell Type: Mammalian polychromatic erythrocytes, Assay Type: Micronucleus test, chromosome aberrations, Assay Code: MNTT, Evaluation Type: Evaluation B (Post-1980)",no conclusion
same,mutagenic call,[10],active; positive
same,mutagenic call,"Species/Cell Type: Saccharomyces cerevisiae, Assay Type: Mitotic recombination or gene conversion, Assay Code: YEC+, Evaluation Type: Evaluation A (Pre-1980)",active; positive
same,mutagenic call,"Species/Cell Type: Saccharomyces cerevisiae, Assay Type: Mitotic recombination or gene conversion, Assay Code: YEH+, Evaluation Type: Evaluation A (Pre-1980)",active; positive
same,mutagenic call,[11],active; positive
same,mutagenic call,[4],no conclusion
O=S(=O)(O)c1ccc(N=Nc2c(O)ccc3cc(S(=O)(=O)O)ccc23)cc1,mutagenic call,[1],no conclusion
same,mutagenic call,[2],no conclusion
same,call,"Species/Cell Type: Nonhuman, Assay Code: CCG-, Evaluation Type: Evaluation A (Pre-1980)",inactive; negative
same,mutagenic call,"Species/Cell Type: Nonhuman, Assay Type: Sister-chromatid exchange (SCE) in vitro, Assay Code: SC2T, Evaluation Type: Evaluation A (Pre-1980)",no conclusion
same,mutagenic call,[3],inactive; negative
same,mutagenic call,[5],inactive; negative
NC(=O)c1cccnc1,mutagenic call,"Species/Cell Type: Human, Assay Type: Sister-chromatid exchange (SCE) in vitro, Assay Code: SC1+, Evaluation Type: Evaluation B (Post-1980)",active; positive
same,mutagenic call,[12],active; positive
CCCCC(=O)N(C)N=O,mutagenic call,[11],active; positive
CC(=O)Nc1nc(-c2ccc([N+](=O)[O-])s2)cs1,mutagenic call,[4],no conclusion
CCCCCc1cc(O)c2c(c1)OC(C)(C)[C@@H]1CCC(CO)=C[C@@H]21,mutagenic call,"Species/Cell Type: Human diploid fibroblasts, Assay Type: Unscheduled DNA synthesis (UDS) in vitro, DNA effects, Assay Code: UDH-, Evaluation Type: Evaluation A (Pre-1980)",inactive; negative
C[C@]12CC[C@@H](O)C[C@@H]1CC[C@@H]1[C@@H]2CC[C@]2(C)C(=O)CC[C@@H]12,mutagenic call,"Species/Cell Type: Mouse, Sex: Male, Assay Type: Sperm morphology, Assay Code: SPI-, Evaluation Type: Evaluation A (Pre-1980)",inactive; negative
O=NN1CCCCC1C(=O)O (stereo not drawn),mutagenic call,"Species/Cell Type: Drosophila melanogaster, Assay Type: Sex-linked recessive lethal gene mutation, Assay Code: SRLT, Evaluation Type: Evaluation A (Pre-1980)",no conclusion
O=C1c2ccccc2C(=O)c2c(NCCNCCO)ccc(O)c21,mutagenic call,[12],active; positive
CCCCO,mutagenic call,"Species/Cell Type: Nonhuman, Assay Type: Sister-chromatid exchange (SCE) in vitro, Assay Code: SC2-, Evaluation Type: Evaluation A (Pre-1980)",inactive; negative
same,mutagenic call,[5],inactive; negative
CC(=O)OC(c1ccccc1)N(C)N=O (stereo not drawn),mutagenic call,"Species/Cell Type: Salmonella typhimurium (one or more of the five standard strains: TA98, TA100, TA1535, TA1537, and TA1538), Assay Type: Histidine reverse gene mutation, Ames assay, Assay Code: SAL+, Evaluation Type: Evaluation A (Pre-1980)",active; positive
ClCOCCl,call,[9],active; positive
CCc1cccc(C)c1N(C(=O)CCl)C(C)COC (stereo not drawn),mutagenic call,"Species/Cell Type: Zea mays (corn), Assay Type: Gene mutation, Assay Code: ZEM-, Evaluation Type: Evaluation A (Pre-1980)",inactive; negative
O=CCBr,mutagenic call,[6],active; positive
CCCC(=O)C1c2cccc(O)c2C(=O)c2c(O)cccc21,mutagenic call,[13],inactive; negative
CCSCCC(N)C(=O)O (stereo not drawn),mutagenic call,"Species/Cell Type: Neurospora crassa, Assay Type: Aneuploidy, chromosome aberrations, Assay Code: NEN-, Evaluation Type: Evaluation A (Pre-1980)",inactive; negative
same,call,[9],active; positive
same,mutagenic call,[12],active; positive
CC(C)[C@@](O)(C(=O)OCC1=CCN2CCC[C@@H]12)[C@@H](C)O,mutagenic call,"Species/Cell Type: Allium cepa, Assay Type: Chromosome aberrations, Assay Code: ALC+, Evaluation Type: Evaluation A (Pre-1980)",active; positive
same,mutagenic call,[8],active; positive
O[C@@H]1c2ccc3cc4ccccc4cc3c2[C@@H]2OC2[C@@H]1O (stereo partly drawn),mutagenic call,"Species/Cell Type: Chinese hamster lung (V79) cells, Assay Type: Forward gene mutation at the HPRT or ouabain locus, Assay Code: V79+, Evaluation Type: Evaluation A (Pre-1980)",active; positive
N.N.[Cl-].[Cl-].[Cl-].[Cl-].[Pt+4],mutagenic call,[12],active; positive
CCCCCC[C@@H](O)C1C2=C(CC([C@H](O)C3CCCC(=O)O3)CC3=C(C(=O)OC3=O)[C@@H]1O)C(=O)OC2=O (stereo partly drawn),mutagenic call,[14],inactive; negative
C=C(Cl)Cl,mutagenic call,[13],inactive; negative
same,call,"Species/Cell Type: Nonhuman, Assay Code: CCG+L, Evaluation Type: Evaluation A (Pre-1980)",active; positive
same,mutagenic call,[14],inactive; negative
same,mutagenic call,[7],active; positive
same,mutagenic call,"Species/Cell Type: Tradescantia species, Assay Type: Gene mutation, Assay Code: TRM+D, Dose Response: With dose response, Evaluation Type: Evaluation A (Pre-1980)",active; positive

# — PubChem BioAssay AID1259408 (Genetic Toxicology Data Bank (GENE-TOX), 2018)
